# Data taken from ChEMBL document CHEMBL2311455, “Combining QSAR classification models for predictive modeling of human monoamine oxidase inhibitors” (Eur J Med Chem, 2013).
# Experiments:
# [1] = biological target: T1, Amine oxidase [flavin-containing] B (Homo sapiens, UniProt P27338); assay: Inhibition of human recombinant MAOB
# T1 sequence (P27338 whole entry): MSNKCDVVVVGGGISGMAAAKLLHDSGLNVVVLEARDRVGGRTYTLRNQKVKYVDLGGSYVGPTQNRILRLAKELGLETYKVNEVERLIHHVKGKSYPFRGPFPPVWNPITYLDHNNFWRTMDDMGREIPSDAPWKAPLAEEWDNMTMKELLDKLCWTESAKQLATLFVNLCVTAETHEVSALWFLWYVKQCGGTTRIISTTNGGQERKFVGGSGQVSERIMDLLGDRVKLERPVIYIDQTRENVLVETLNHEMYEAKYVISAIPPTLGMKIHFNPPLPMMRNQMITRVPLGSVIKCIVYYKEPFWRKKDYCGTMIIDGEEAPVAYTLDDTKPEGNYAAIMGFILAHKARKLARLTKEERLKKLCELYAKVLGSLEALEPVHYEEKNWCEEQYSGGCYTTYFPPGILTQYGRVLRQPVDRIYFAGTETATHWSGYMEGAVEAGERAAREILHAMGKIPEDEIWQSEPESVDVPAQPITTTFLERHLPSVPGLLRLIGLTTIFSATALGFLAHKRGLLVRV
# [2] = biological target: T2, Amine oxidase [flavin-containing] A (Homo sapiens, UniProt P21397); assay: Inhibition of human recombinant MAOA
# T2 sequence (P21397 whole entry): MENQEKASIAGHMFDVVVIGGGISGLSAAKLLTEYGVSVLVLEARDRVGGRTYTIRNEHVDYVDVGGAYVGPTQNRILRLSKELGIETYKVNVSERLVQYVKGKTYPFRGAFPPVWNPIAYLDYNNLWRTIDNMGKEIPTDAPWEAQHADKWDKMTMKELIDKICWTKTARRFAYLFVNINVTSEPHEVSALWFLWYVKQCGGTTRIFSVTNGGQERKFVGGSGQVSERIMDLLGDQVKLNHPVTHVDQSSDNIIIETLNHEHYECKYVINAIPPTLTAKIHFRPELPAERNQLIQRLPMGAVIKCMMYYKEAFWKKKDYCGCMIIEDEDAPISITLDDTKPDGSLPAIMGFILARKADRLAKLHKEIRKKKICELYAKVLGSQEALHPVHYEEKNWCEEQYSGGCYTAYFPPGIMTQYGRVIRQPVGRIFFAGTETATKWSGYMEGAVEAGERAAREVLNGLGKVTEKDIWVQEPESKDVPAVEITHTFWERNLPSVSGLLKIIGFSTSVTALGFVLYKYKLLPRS
# [3] = organism: Homo sapiens; assay: Selectivity index, difference in pIC50 for human recombinant MAOB and pIC50 for human recombinant MAOA
Compound,IC50 [1],IC50 [2],pSI [3]
CN(C(=O)c1cc(=O)c2ccccc2o1)c1ccccc1,> 100 µM,> 100 µM,0
CCCOC(=O)c1coc2ccccc2c1=O,5.62 µM,> 100 µM,> 1.25
CCCOC(=O)c1cc(=O)c2ccccc2o1,35.5 µM,> 100 µM,> 0.45
O=C(Nc1ccc(O)c(O)c1)c1cc(=O)c2ccccc2o1,–,–,-1.15
O=c1cc(CO)oc2ccccc12,> 100 µM,> 100 µM,0
CCOC(=O)c1cc(=O)c2ccccc2o1,> 100 µM,> 100 µM,0
O=c1c(CO)coc2ccccc12,38 µM,> 100 µM,> 0.42
O=C(O)c1coc2ccc(Cl)cc2c1=O,> 1000 µM,> 100 µM,< -1
CCOC(=O)c1cc(=O)c2cc(Cl)ccc2o1,38.9 µM,> 100 µM,> 0.41
CCOC(=O)c1coc2ccccc2c1=O,1.91 µM,> 100 µM,> 1.72
O=C(O)c1cc(=O)c2cc(Cl)ccc2o1,> 1000 µM,> 100 µM,< -1
